Our source for the relative viability values is the supplement of paper PMC10307832.

Common to all, as to assay: relative viability (nuclei count vs DMSO), 5 days (fraction); higher = more cells survive
Compound in the test “TGX 221 + Decitabine”: CC1=CN2C(=O)C=C(N=C2C(=C1)C(C)NC3=CC=CC=C3)N4CCOCC4 [TGX 221] + Nc1ncn([C@H]2C[C@H](O)[C@@H](CO)O2)c(=O)n1 [Decitabine] (partner 2 µM)
The procedure, abridged:
(§1)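 Each reported value is a median over duplicate plates. It expresses relative viability: treated-well nuclei count divided by vehicle-well nuclei count. Lung cancer cell lines in 1536-well plates were dosed by pin tool a day after seeding, alone with one drug or with a fixed anchor-drug dose plus five library-drug doses (not always all listed) in √10 steps, and nuclei were counted after 5 days.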

Compound in the test “TGX 221 + Vorinostat”: CC1=CN2C(=O)C=C(N=C2C(=C1)C(C)NC3=CC=CC=C3)N4CCOCC4 [TGX 221] + O=C(CCCCCCC(=O)Nc1ccccc1)NO [Vorinostat] (partner 1 µM)
In a few lines: as §1

Compound in test [1]: O=C(CCCCCCNC(=O)c1cnc(N(c2ccccc2)c2ccccc2)nc1)NO [Ricolinostat] + CC(C)C[C@H](NC(=O)[C@H](Cc1ccccc1)NC(=O)c1cnccn1)B(O)O [Bortezomib] (partner 0.002 µM)
In a few lines: as §1

Compound in test [2]: C1=CC=C(C(=C1)C2=CC=C(C=C2)C3=CSC4=C3C(=C(C(=O)N4)C#N)O)O + CCNC(=O)c1noc(-c2cc(C(C)C)c(O)cc2O)c1-c1ccc(CN2CCOCC2)cc1 [Luminespib] (partner 0.01 µM)
The procedure, abridged: as §1

As for EMC-BAC-2, the relative viability with TGX 221 + Decitabine (first compound 0.08 µM) was 0.961; with TGX 221 + Decitabine (first compound 0.253 µM), 0.886; with TGX 221 + Decitabine (first compound 0.8 µM), 0.947; with TGX 221 + Decitabine (first compound 2.53 µM), 1.05; with TGX 221 + Decitabine (first compound 8 µM) it was 0.85; with TGX 221 + Vorinostat (first compound 0.08 µM), 0.414. Also, the relative viability came to 0.461 with TGX 221 + Vorinostat (first compound 0.253 µM); 0.426 in the test with TGX 221 + Vorinostat (first compound 0.8 µM); 0.493 with TGX 221 + Vorinostat (first compound 2.53 µM); 0.424 with TGX 221 + Vorinostat (first compound 8 µM); 0.957 in test [1] (first compound 0.08 µM); 1.12 in test [1] (first compound 0.253 µM). The relative viability came to 1.06 in test [1] (first compound 0.8 µM); 0.941 in test [1] (first compound 2.53 µM); 0.953 in test [2] (first compound 0.08 µM); 1.25 in test [2] (first compound 0.253 µM); 1.25 in test [2] (first compound 0.8 µM); 1.26 in test [2] (first compound 2.53 µM). Besides, in test [2] (first compound 8 µM), the relative viability was found to be 1.18.

As to EPLC-272H, the relative viability with TGX 221 + Decitabine (first compound 0.08 µM) was found to be 0.352; with TGX 221 + Decitabine (first compound 0.253 µM), 0.349; with TGX 221 + Decitabine (first compound 0.8 µM), 0.316; with TGX 221 + Decitabine (first compound 2.53 µM), 0.343; in the test with TGX 221 + Decitabine (first compound 8 µM) it was 0.332; in the test with TGX 221 + Vorinostat (first compound 0.08 µM), 0.47. Besides, the relative viability with TGX 221 + Vorinostat (first compound 0.253 µM) was found to be 0.358; with TGX 221 + Vorinostat (first compound 0.8 µM) it was 0.469; with TGX 221 + Vorinostat (first compound 2.53 µM) it was 0.426; in the test with TGX 221 + Vorinostat (first compound 8 µM) it was 0.369; in test [1] (first compound 0.253 µM) it was 0.751; in test [1] (first compound 0.8 µM), 0.848. Also, the relative viability in test [1] (first compound 2.53 µM) is 0.871; in test [2] (first compound 0.08 µM), 0.279; in test [2] (first compound 0.253 µM), 0.282; in test [2] (first compound 0.8 µM), 0.247; in test [2] (first compound 2.53 µM), 0.223; in test [2] (first compound 8 µM), 0.282.

H3255: the relative viability in the test with TGX 221 + Decitabine (first compound 0.08 µM) came out at 0.54; with TGX 221 + Decitabine (first compound 0.253 µM), 0.595; in the test with TGX 221 + Decitabine (first compound 0.8 µM) it was 0.53; with TGX 221 + Decitabine (first compound 2.53 µM) it was 0.58; with TGX 221 + Decitabine (first compound 8 µM), 0.553; with TGX 221 + Vorinostat (first compound 0.08 µM), 0.779. In addition, the relative viability with TGX 221 + Vorinostat (first compound 0.253 µM) was determined as 0.823; with TGX 221 + Vorinostat (first compound 0.8 µM), 0.816; with TGX 221 + Vorinostat (first compound 2.53 µM) it was 0.782; in the test with TGX 221 + Vorinostat (first compound 8 µM), 0.845; in test [1] (first compound 0.08 µM) it was 0.516; in test [1] (first compound 0.253 µM), 0.727. Further, the relative viability in test [1] (first compound 0.8 µM) amounted to 0.678; in test [1] (first compound 2.53 µM), 0.617; in test [2] (first compound 0.08 µM), 0.968; in test [2] (first compound 0.253 µM) it was 1.02; in test [2] (first compound 0.8 µM) it was 0.713; in test [2] (first compound 2.53 µM), 0.852. The relative viability in test [2] (first compound 8 µM) is 0.895.

Regarding HARA, the relative viability was 0.604 in the test with TGX 221 + Decitabine (first compound 0.08 µM); 0.488 with TGX 221 + Decitabine (first compound 0.253 µM); 0.529 with TGX 221 + Decitabine (first compound 0.8 µM); 0.504 with TGX 221 + Decitabine (first compound 2.53 µM); 0.433 with TGX 221 + Decitabine (first compound 8 µM); 0.508 with TGX 221 + Vorinostat (first compound 0.08 µM). For the same cell line, the relative viability with TGX 221 + Vorinostat (first compound 0.253 µM) is 0.475; with TGX 221 + Vorinostat (first compound 0.8 µM), 0.575; with TGX 221 + Vorinostat (first compound 2.53 µM), 0.517; with TGX 221 + Vorinostat (first compound 8 µM), 0.471; in test [1] (first compound 0.08 µM), 1.05; in test [1] (first compound 0.253 µM), 1.02. For the same cell line, the relative viability in test [1] (first compound 0.8 µM) is 1.1; in test [1] (first compound 2.53 µM), 0.638; in test [2] (first compound 0.08 µM), 0.375; in test [2] (first compound 0.253 µM), 0.707; in test [2] (first compound 0.8 µM), 0.553; in test [2] (first compound 2.53 µM) it was 0.592. Besides, the relative viability in test [2] (first compound 8 µM) worked out at 0.682.

For the cell line HCC-15, the relative viability with TGX 221 + Decitabine (first compound 0.08 µM) worked out at 0.699; in the test with TGX 221 + Decitabine (first compound 0.253 µM) it was 0.648; in the test with TGX 221 + Decitabine (first compound 0.8 µM) it was 0.636; with TGX 221 + Decitabine (first compound 2.53 µM) it was 0.591; in the test with TGX 221 + Decitabine (first compound 8 µM), 0.709; with TGX 221 + Vorinostat (first compound 0.08 µM), 0.753. For the same cell line, the relative viability in the test with TGX 221 + Vorinostat (first compound 0.253 µM) amounted to 0.787; with TGX 221 + Vorinostat (first compound 0.8 µM), 0.977; with TGX 221 + Vorinostat (first compound 2.53 µM), 0.839; with TGX 221 + Vorinostat (first compound 8 µM), 0.787; in test [1] (first compound 0.08 µM), 0.897; in test [1] (first compound 0.253 µM) it was 0.987. Besides, the relative viability was 0.983 in test [1] (first compound 0.8 µM); 0.925 in test [1] (first compound 2.53 µM); 0.277 in test [2] (first compound 0.08 µM); 0.289 in test [2] (first compound 0.253 µM); 0.297 in test [2] (first compound 0.8 µM); 0.38 in test [2] (first compound 2.53 µM). Moreover, the relative viability in test [2] (first compound 8 µM) is 0.3.

For HCC-44, the relative viability turned out to be 0.921 with TGX 221 + Decitabine (first compound 0.08 µM); 0.957 in the test with TGX 221 + Decitabine (first compound 0.253 µM); 1.03 with TGX 221 + Decitabine (first compound 0.8 µM); 1.04 in the test with TGX 221 + Decitabine (first compound 2.53 µM); 1.02 with TGX 221 + Decitabine (first compound 8 µM); 1.12 with TGX 221 + Vorinostat (first compound 0.08 µM). Further, the relative viability came out at 1.22 with TGX 221 + Vorinostat (first compound 0.253 µM); 1.17 in the test with TGX 221 + Vorinostat (first compound 0.8 µM); 1.17 with TGX 221 + Vorinostat (first compound 2.53 µM); 1.21 in the test with TGX 221 + Vorinostat (first compound 8 µM); 0.904 in test [1] (first compound 0.08 µM); 0.887 in test [1] (first compound 0.253 µM). The relative viability in test [1] (first compound 0.8 µM) worked out at 0.904; in test [1] (first compound 2.53 µM) it was 0.663; in test [2] (first compound 0.253 µM) it was 1.55; in test [2] (first compound 0.8 µM), 0.993; in test [2] (first compound 2.53 µM), 1.12; in test [2] (first compound 8 µM), 0.822.

For HCC-827, the relative viability with TGX 221 + Decitabine (first compound 0.08 µM) is 0.292; in the test with TGX 221 + Decitabine (first compound 0.253 µM), 0.359; with TGX 221 + Decitabine (first compound 0.8 µM), 0.281; with TGX 221 + Decitabine (first compound 2.53 µM), 0.305; in the test with TGX 221 + Decitabine (first compound 8 µM), 0.327; in the test with TGX 221 + Vorinostat (first compound 0.08 µM), 0.777. Also, the relative viability with TGX 221 + Vorinostat (first compound 0.253 µM) stood at 0.922; with TGX 221 + Vorinostat (first compound 0.8 µM) it was 0.888; with TGX 221 + Vorinostat (first compound 2.53 µM) it was 0.891; with TGX 221 + Vorinostat (first compound 8 µM), 0.852; in test [1] (first compound 0.08 µM), 1.01; in test [1] (first compound 0.253 µM) it was 0.981. The relative viability worked out at 0.995 in test [1] (first compound 0.8 µM); 1.03 in test [1] (first compound 2.53 µM); 0.639 in test [2] (first compound 0.08 µM); 0.845 in test [2] (first compound 0.253 µM); 0.573 in test [2] (first compound 0.8 µM); 0.7 in test [2] (first compound 2.53 µM). The relative viability in test [2] (first compound 8 µM) was 0.43.
